Test results reported in ChEMBL document CHEMBL1833833, “Design and synthesis of long acting inhaled corticosteroids for the treatment of asthma” (Bioorg Med Chem Lett, 2011).
pEC50, pIC50: −log10 of the molar value.

Legend:
PBMC = experiment: Inhibition of TNFalpha release in human PBMC by ELISA assay; format: functional, cell-based
Glucocorticoid receptor = target: T1, Glucocorticoid receptor (Homo sapiens, UniProt P04150)
T1 sequence (P04150 whole entry): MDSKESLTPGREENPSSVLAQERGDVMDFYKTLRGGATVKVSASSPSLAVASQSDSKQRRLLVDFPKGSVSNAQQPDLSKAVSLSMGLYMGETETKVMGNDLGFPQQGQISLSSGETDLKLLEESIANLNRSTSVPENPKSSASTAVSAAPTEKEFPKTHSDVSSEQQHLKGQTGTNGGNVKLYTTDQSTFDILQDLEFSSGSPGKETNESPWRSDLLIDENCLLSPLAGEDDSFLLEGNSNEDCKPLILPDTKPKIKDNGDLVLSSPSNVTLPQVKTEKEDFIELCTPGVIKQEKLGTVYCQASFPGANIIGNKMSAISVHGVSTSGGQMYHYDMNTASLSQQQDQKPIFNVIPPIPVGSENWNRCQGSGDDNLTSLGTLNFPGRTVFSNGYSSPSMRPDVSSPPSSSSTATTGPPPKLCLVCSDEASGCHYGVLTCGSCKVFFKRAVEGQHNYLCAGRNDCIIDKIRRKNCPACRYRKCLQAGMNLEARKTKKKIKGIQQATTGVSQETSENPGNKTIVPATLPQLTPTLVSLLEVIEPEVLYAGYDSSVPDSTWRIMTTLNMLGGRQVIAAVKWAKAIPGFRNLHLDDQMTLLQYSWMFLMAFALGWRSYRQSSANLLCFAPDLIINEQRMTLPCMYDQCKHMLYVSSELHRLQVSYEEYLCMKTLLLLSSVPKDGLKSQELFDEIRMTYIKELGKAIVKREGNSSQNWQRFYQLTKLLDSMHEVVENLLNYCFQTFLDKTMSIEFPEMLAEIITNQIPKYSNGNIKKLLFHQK
Description: Agonist activity at GR in human SW1353 cells transfected with luciferase gene linked to MMTV promoter assessed as luciferase transactivation activity

Blood = experiment: Inhibition of TNFalpha release in LPS-stimulated human whole blood by ELISA assay; format: functional, tissue-based

Row | pEC50 (Glucocorticoid receptor) | pIC50 (Blood) | SMILES | pIC50 (PBMC)
1 | – | – | C[C@]12C=CC(=O)C=C1[C@@H](F)C[C@H]1[C@@H]3C[C@H]4O[C@@H](c5ccc(Cc6ccccc6)cc5)O[C@@]4(C(=O)CO)[C@@]3(C)C[C@H](O)[C@@]12F | 9.77
2 | – | – | C[C@]12C=CC(=O)C=C1[C@@H](F)C[C@H]1[C@@H]3C[C@H]4O[C@@H](c5ccc(Cc6ccc(O)cc6)cc5)O[C@@]4(C(=O)CO)[C@@]3(C)C[C@H](O)[C@@]12F | 10.40
3 | – | – | C[C@]12C=CC(=O)C=C1[C@@H](F)C[C@H]1[C@@H]3C[C@H]4O[C@@H](c5ccc(CSc6cccc(O)c6)cc5)O[C@@]4(C(=O)CO)[C@@]3(C)C[C@H](O)[C@@]12F | 9.82
4 | 7.68 | – | C[C@]12C=CC(=O)C=C1[C@@H](F)C[C@H]1[C@@H]3C[C@H]4O[C@@H](c5ccc(OC6=CCC(=O)N=N6)cc5)O[C@@]4(C(=O)CO)[C@@]3(C)C[C@H](O)[C@@]12F | 9.92
5 | – | – | C[C@]12C=CC(=O)C=C1[C@@H](F)C[C@H]1[C@@H]3C[C@H]4O[C@@H](c5ccc(CN6CCOCC6)cc5)O[C@@]4(C(=O)CO)[C@@]3(C)C[C@H](O)[C@@]12F | 8.74
6 | – | – | C[C@]12C=CC(=O)C=C1[C@@H](F)C[C@H]1[C@@H]3C[C@H]4O[C@@H](c5ccc(Oc6ccccc6)cc5)O[C@@]4(C(=O)CO)[C@@]3(C)C[C@H](O)[C@@]12F | 10.05
7 | – | 7.37 | C[C@@H]1C[C@H]2[C@@H]3C[C@H](F)C4=CC(=O)C=C[C@]4(C)[C@@]3(F)[C@@H](O)C[C@]2(C)[C@@]1(OC(=O)c1ccco1)C(=O)SCF [FLUTICASONE FUROATE] | 10.30
